Key:
Assay type in all cases: cell-based
Pseudomonas aeruginosa = test: MIC against Gram-negative bacteria: Pseudomonas aeruginosa; conditions: 5×10^5 CFU/mL; for MIC against P. aeruginosa: Pseudomonas aeruginosa
Outline: (§1)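 Read-out is absence of bacterial growth, with MIC set at the lowest recombinant protein concentration achieving it. Bacteria, pre-grown in LB to McFarland 0.5 and resuspended, were exposed at 5×10^5 CFU/mL to two-fold diluted human EGF domain proteins in triplicate at 37° C, 175 rpm.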

Citrobacter diversus = test: MIC against Gram-negative bacteria: Citrobacter diversus; conditions: 5×10^5 CFU/mL; for MIC against C. diversus: Citrobacter diversus
Outline: as §1

Klebsiella pneumonia = test: MIC against Gram-negative bacteria: Klebsiella pneumonia; conditions: 5×10^5 CFU/mL; for MIC against K. pneumonia: Klebsiella pneumonia
Outline: as §1

E. coli BL21 = test: MIC against Gram-negative bacteria: E. coli BL21; conditions: 5×10^5 CFU/mL
Outline: as §1

Aeromonas hydrophila = test: MIC against Gram-negative bacteria: Aeromonas hydrophila; conditions: 5×10^5 CFU/mL; for MIC against A. hydrophila: Aeromonas hydrophila
Outline: as §1

E. coli DH5α = test: Antibacterial activity: MIC and growth curve against E. coli DH5α in 96-well plate; conditions: minimal inhibitory concentration against E. coli DH5α; 96-well plate, 5×10^5 CFU/mL, 37° C., judged after 8 h
Outline: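 MIC taken as lowest protein level with no bacterial growth, tracked by A600 every 30 min during 37 °C, 175 rpm culture. Two-fold protein series 50-12.5 μg/mL final, triplicate wells, against 5×10^5 CFU/mL of LB-washed mid-log cells.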

Proteus mirabilis = test: MIC against Gram-negative bacteria: Proteus mirabilis; conditions: 5×10^5 CFU/mL; for MIC against P. mirabilis: Proteus mirabilis
Outline: as §1

Proteus vulgaris = test: MIC against Gram-negative bacteria: Proteus vulgaris; conditions: 5×10^5 CFU/mL; for MIC against P. vulgaris: Proteus vulgaris
Outline: as §1

Serratia marcescens = test: MIC against Gram-negative bacteria: Serratia marcescens; conditions: 5×10^5 CFU/mL; for MIC against S. marcescens: Serratia marcescens
Outline: as §1

Moraxella catarrhalis = test: MIC against Gram-negative bacteria: Moraxella catarrhalis; conditions: 5×10^5 CFU/mL; for MIC against M. catarrhalis: Moraxella catarrhalis
Outline: as §1

Enterobacter cloacae = test: MIC against Gram-negative bacteria: Enterobacter cloacae; conditions: 5×10^5 CFU/mL; for MIC against E. cloacae: Enterobacter cloacae
Outline: as §1

[1] = P. aeruginosa, 10 h cultivation at 37° C.
[2] = C. diversus, 10 h cultivation at 37° C.
[3] = K. pneumonia, 10 h cultivation at 37° C.
[4] = E. coli BL21, 10 h cultivation at 37° C.
[5] = A. hydrophila, 10 h cultivation at 37° C.
[6] = P. mirabilis, 10 h cultivation at 37° C.
[7] = P. vulgaris, 10 h cultivation at 37° C.
[8] = S. marcescens, 10 h cultivation at 37° C.
[9] = M. catarrhalis, 10 h cultivation at 37° C.
[10] = E. cloacae, 10 h cultivation at 37° C.
[11] = 10 h cultivation at 37° C., two-fold serial dilution

Substance: PRT762 (ALDPCVLGTHQCQHVCISDGEGKHHCECSQGYTLNADKKTCS; listed as Homo sapiens)
- MIC (μg/mL) P. aeruginosa (Pseudomonas aeruginosa; [1]): 50 µg/mL
- MIC (μg/mL) C. diversus (Citrobacter diversus; [2]): 50 µg/mL
- MIC (μg/mL) K. pneumonia (Klebsiella pneumonia; [3]): 12.5 µg/mL
- MIC (μg/mL) E. coli BL21 (E. coli BL21; [4]): 12.5 µg/mL
- MIC (μg/mL) A. hydrophila (Aeromonas hydrophila; [5]): 12.5 µg/mL
- MIC (E. coli DH5α): 50 µg/mL
- MIC (μg/mL) P. mirabilis (Proteus mirabilis; [6]): 50 µg/mL
- MIC (μg/mL) P. vulgaris (Proteus vulgaris; [7]): 25 µg/mL
- MIC (μg/mL) S. marcescens (Serratia marcescens; [8]): 12.5 µg/mL
- MIC (μg/mL) M. catarrhalis (Moraxella catarrhalis; [9]): 12.5 µg/mL
- MIC (μg/mL) E. cloacae (Enterobacter cloacae; [10]): 50 µg/mL

Substance: PRT1462 (CQCNLHGSVNKFCNPHSGQCECKKEAKGLQCDTCRENFYGLDVTNCKA; listed as Homo sapiens)
- MIC against P. aeruginosa (Pseudomonas aeruginosa; 10 h cultivation at 37° C.): 100 µg/mL
- MIC against C. diversus (Citrobacter diversus; 10 h cultivation at 37° C.): 25 µg/mL
- MIC against K. pneumonia (Klebsiella pneumonia; 10 h cultivation at 37° C.): 12.5 µg/mL
- MIC against E. coli BL21 (E. coli BL21; [4]): 25 µg/mL
- MIC against A. hydrophila (Aeromonas hydrophila; 10 h cultivation at 37° C.): 12.5 µg/mL
- MIC (E. coli DH5α): 12.5 µg/mL
- MIC against P. mirabilis (Proteus mirabilis; 10 h cultivation at 37° C.): 25 µg/mL
- MIC against P. vulgaris (Proteus vulgaris; 10 h cultivation at 37° C.): 12.5 µg/mL
- MIC against S. marcescens (Serratia marcescens; 10 h cultivation at 37° C.): 25 µg/mL
- MIC against M. catarrhalis (Moraxella catarrhalis; 10 h cultivation at 37° C.): 12.5 µg/mL
- MIC against E. cloacae (Enterobacter cloacae; 10 h cultivation at 37° C.): 12.5 µg/mL

Substance: PRT1203 (DIDECAEGRHYCRENTMCVNTPGSFMCICKTGYIRIDDYSCT; listed as Homo sapiens)
- MIC against P. aeruginosa (Pseudomonas aeruginosa; 96-well plate, 37° C., 10 h): 50 µg/mL
- MIC against C. diversus (Citrobacter diversus; 96-well plate, 37° C., 10 h): 12.5 µg/mL
- MIC against K. pneumonia (Klebsiella pneumonia; 96-well plate, 37° C., 10 h): 25 µg/mL
- MIC against E. coli BL21 (E. coli BL21; E. coli BL21, 96-well plate, 37° C., 10 h): 12.5 µg/mL
- MIC against A. hydrophila (Aeromonas hydrophila; 96-well plate, 37° C., 10 h): 50 µg/mL
- MIC (E. coli DH5α): 25 µg/mL
- MIC against P. mirabilis (Proteus mirabilis; 96-well plate, 37° C., 10 h): 12.5 µg/mL
- MIC against P. vulgaris (Proteus vulgaris; 96-well plate, 37° C., 10 h): 25 µg/mL
- MIC against S. marcescens (Serratia marcescens; 96-well plate, 37° C., 10 h): 50 µg/mL
- MIC against M. catarrhalis (Moraxella catarrhalis; 96-well plate, 37° C., 10 h): 50 µg/mL
- MIC against E. cloacae (Enterobacter cloacae; 96-well plate, 37° C., 10 h): 12.5 µg/mL

Substance: PRT439 (DINECQESSPCHQRCFNAIGSFHCGCEPGYQLKGRKCM; listed as Homo sapiens)
- MIC (Pseudomonas aeruginosa; [1]): 25 µg/mL
- MIC (Citrobacter diversus; [2]): 25 µg/mL
- MIC (Klebsiella pneumonia; [3]): 50 µg/mL
- MIC (E. coli BL21; [4]): 12.5 µg/mL
- MIC (Aeromonas hydrophila; [5]): 12.5 µg/mL
- MIC (E. coli DH5α): 25 µg/mL
- MIC (Proteus mirabilis; [6]): 12.5 µg/mL
- MIC (Proteus vulgaris; [7]): 50 µg/mL
- MIC (Serratia marcescens; [8]): 12.5 µg/mL
- MIC (Moraxella catarrhalis; [9]): 50 µg/mL
- MIC (Enterobacter cloacae; [10]): 25 µg/mL

Substance: PRT1044 (FGQDCAETCDCAPDARCFPANGACLCEHGFTGDRCT; listed as Homo sapiens)
- MIC P. aeruginosa (Pseudomonas aeruginosa; [11]): 50 µg/mL
- MIC C. diversus (Citrobacter diversus; [11]): 50 µg/mL
- MIC K. pneumonia (Klebsiella pneumonia; [11]): 12.5 µg/mL
- MIC E. coli BL21 (E. coli BL21; [11]): 50 µg/mL
- MIC A. hydrophila (Aeromonas hydrophila; [11]): 50 µg/mL
- MIC (E. coli DH5α): 100 µg/mL
- MIC P. mirabilis (Proteus mirabilis; [11]): 12.5 µg/mL
- MIC P. vulgaris (Proteus vulgaris; [11]): 25 µg/mL
- MIC S. marcescens (Serratia marcescens; [11]): 50 µg/mL
- MIC M. catarrhalis (Moraxella catarrhalis; [11]): 25 µg/mL
- MIC E. cloacae (Enterobacter cloacae; [11]): 50 µg/mL

Substance: PRT1125 (LCDQCVTSPGCLHGLCGEPGQCICTDGWDGELCD; listed as Homo sapiens)
- MIC P. aeruginosa (Pseudomonas aeruginosa; [11]): 12.5 µg/mL
- MIC C. diversus (Citrobacter diversus; [11]): 12.5 µg/mL
- MIC K. pneumonia (Klebsiella pneumonia; [11]): 12.5 µg/mL
- MIC E. coli BL21 (E. coli BL21; [11]): 12.5 µg/mL
- MIC A. hydrophila (Aeromonas hydrophila; [11]): 12.5 µg/mL
- MIC (E. coli DH5α): 25 µg/mL
- MIC P. mirabilis (Proteus mirabilis; [11]): 12.5 µg/mL
- MIC P. vulgaris (Proteus vulgaris; [11]): 12.5 µg/mL
- MIC S. marcescens (Serratia marcescens; [11]): 25 µg/mL
- MIC M. catarrhalis (Moraxella catarrhalis; [11]): 12.5 µg/mL
- MIC E. cloacae (Enterobacter cloacae; [11]): 12.5 µg/mL

Substance: PRT717 (DLNECLVFGTCSHQCINVEGSYKCVCDQNFQERNNTCI; listed as Homo sapiens)
- MIC P. aeruginosa (Pseudomonas aeruginosa; 96-well plate, 37° C., 10 h): 50 µg/mL
- MIC C. diversus (Citrobacter diversus; 96-well plate, 37° C., 10 h): 25 µg/mL
- MIC K. pneumonia (Klebsiella pneumonia; 96-well plate, 37° C., 10 h): 12.5 µg/mL
- MIC E. coli BL21 (E. coli BL21; 96-well plate, 37° C., 10 h): 12.5 µg/mL
- MIC A. hydrophila (Aeromonas hydrophila; 96-well plate, 37° C., 10 h): 12.5 µg/mL
- MIC (E. coli DH5α): 50 µg/mL
- MIC P. mirabilis (Proteus mirabilis; 96-well plate, 37° C., 10 h): 25 µg/mL
- MIC P. vulgaris (Proteus vulgaris; 96-well plate, 37° C., 10 h): 12.5 µg/mL
- MIC S. marcescens (Serratia marcescens; 96-well plate, 37° C., 10 h): 50 µg/mL
- MIC M. catarrhalis (Moraxella catarrhalis; 96-well plate, 37° C., 10 h): 50 µg/mL
- MIC E. cloacae (Enterobacter cloacae; 96-well plate, 37° C., 10 h): 50 µg/mL
